Test results published in ChEMBL document CHEMBL1201862, “PubChem BioAssay data set” (2004).
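Interpolation was linear, between the two tested concentrations surrounding the appropriate level; five concentrations were tested over 48 hours in 96-well plates. Here, GI50 denotes the concentration required for 50% inhibition of growth.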 Calls of active or inactive are those of the source. Cut-off read from the data, not from the text of the source: active = GI50 up to about 1.1 µM and inactive = higher.

Experiments:
Test in all cases: growth of human tumour cells (NCI), 48 h
[1] = system: UACC-257
[2] = system: DU-145
[3] = system: UACC-62
[4] = system: HCT-15
[5] = system: NCI-H522
[6] = system: OVCAR-4
[7] = system: SK-MEL-2
[8] = system: HT-29
[9] = system: NCI/ADR-RES
[10] = system: KM12
[11] = system: IGROV-1
[12] = system: LOX IMVI
[13] = system: MOLT-4
[14] = system: BT-549
[15] = system: NCI-H226
[16] = system: SNB-75
[17] = system: NCI-H23
[18] = system: UO-31
[19] = system: PC-3
[20] = system: Hs-578T
[21] = system: HCC 2998
[22] = system: CCRF-CEM
[23] = system: HCT-116
[24] = system: EKVX
[25] = system: SNB-19
[26] = system: SR
[27] = system: K562
[28] = system: HL-60
[29] = system: M14
[30] = system: MCF7
[31] = system: OVCAR-8
[32] = system: U-251
[33] = system: HOP-62
[34] = system: ACHN
[35] = system: 786-0
[36] = system: SK-OV-3
[37] = system: A498
[38] = system: SW-620
[39] = system: SF-539
[40] = system: COLO 205
[41] = system: OVCAR-5
[42] = system: HOP-92
[43] = system: SF-295
[44] = system: SK-MEL-28
[45] = system: T47D
[46] = system: Malme-3M
[47] = system: A549
[48] = system: MDA-MB-231
[49] = system: CAKI-1
[50] = system: SK-MEL-5
[51] = system: SF-268
[52] = system: SN12C
[53] = system: TK-10
[54] = system: MDA-N
[55] = system: MDA-MB-435
[56] = system: NCI-H460
[57] = system: RXF 393
[58] = system: OVCAR-3

Compound: COc1cc2c3cc1Oc1c(OC)c(OC)cc4c1C(Cc1ccc(O)c(c1)Oc1ccc(cc1)CC3N(C)CC2)N(C)CC4 (stereo unspecified)
- GI50 [1]: 34.1 µM (inactive)
- GI50 [2]: 37.8 µM (inactive)
- GI50 [3]: 44.6 µM (inactive)
- GI50 [4]: 16.1 µM
- GI50 [5]: 31.5 µM (inactive)
- GI50 [6]: 29 µM (inactive)
- GI50 [7]: 28.8 µM (inactive)
- GI50 [8]: 31.3 µM (inactive)
- GI50 [9]: 31.5 µM (inactive)
- GI50 [10]: 28.1 µM (inactive)
- GI50 [11]: 39.8 µM (inactive)
- GI50 [12]: 58.7 µM (inactive)
- GI50 [13]: 44.4 µM (inactive)
- GI50 [14]: 23.1 µM (inactive)
- GI50 [15]: 49.9 µM (inactive)
- GI50 [16]: 23.3 µM (inactive)
- GI50 [17]: 14.8 µM (inactive)
- GI50 [18]: 16.7 µM (inactive)
- GI50 [19]: 31.3 µM (inactive)
- GI50 [20]: 24.2 µM (inactive)
- GI50 [21]: 15.8 µM (inactive)
- GI50 [22]: 17.2 µM (inactive)
- GI50 [23]: 45.3 µM (inactive)
- GI50 [24]: 27.9 µM (inactive)
- GI50 [25]: 20.2 µM (inactive)
- GI50 [26]: 2.09 µM (inactive)
- GI50 [27]: 7.78 µM (inactive)
- GI50 [28]: 28.3 µM (inactive)
- GI50 [29]: 33.7 µM (inactive)
- GI50 [30]: 45.9 µM (inactive)
- GI50 [31]: 33.6 µM (inactive)
- GI50 [32]: 21.4 µM (inactive)
- GI50 [33]: 64.6 µM (inactive)
- GI50 [34]: 17.3 µM (inactive)
- GI50 [35]: > 100 µM (inactive)
- GI50 [36]: 29.6 µM (inactive)
- GI50 [37]: 23.7 µM (inactive)
- GI50 [38]: 69.8 µM (inactive)
- GI50 [39]: 24.8 µM (inactive)
- GI50 [40]: 32 µM (inactive)
- GI50 [41]: 39.7 µM (inactive)
- GI50 [42]: 26.2 µM (inactive)
- GI50 [43]: 21.5 µM (inactive)
- GI50 [44]: 64.4 µM (inactive)
- GI50 [45]: 27.8 µM (inactive)
- GI50 [46]: 59.2 µM (inactive)
- GI50 [47]: 26.3 µM (inactive)
- GI50 [48]: 35.6 µM (inactive)
- GI50 [49]: 17.9 µM (inactive)
- GI50 [50]: 20 µM (inactive)
- GI50 [51]: 24.3 µM (inactive)
- GI50 [52]: 19.1 µM (inactive)
- GI50 [53]: 42.8 µM (inactive)
- GI50 [54]: 21.7 µM (inactive)
- GI50 [55]: > 10 µM (inactive)
- GI50 [56]: 15.7 µM (inactive)

Compound: CCCCC/C=C1\CC(CO)(COC(=O)CC(C(C)C)C(C)C)OC1=O (stereo unspecified)
- GI50 [1]: 21.1 µM (inactive)
- GI50 [2]: 15.6 µM (inactive)
- GI50 [3]: 19.4 µM (inactive)
- GI50 [4]: 19.9 µM
- GI50 [5]: 17.8 µM (inactive)
- GI50 [6]: 30 µM (inactive)
- GI50 [7]: 20.3 µM (inactive)
- GI50 [8]: 19.9 µM (inactive)
- GI50 [9]: 20.3 µM (inactive)
- GI50 [10]: 11.4 µM (inactive)
- GI50 [11]: 17.4 µM (inactive)
- GI50 [13]: 15.2 µM (inactive)
- GI50 [14]: 16.4 µM (inactive)
- GI50 [15]: 13.7 µM (inactive)
- GI50 [16]: 12.1 µM (inactive)
- GI50 [17]: 17.5 µM (inactive)
- GI50 [18]: 13.7 µM (inactive)
- GI50 [19]: 10.5 µM (inactive)
- GI50 [20]: 4.62 µM (inactive)
- GI50 [21]: 15.4 µM (inactive)
- GI50 [22]: 11.8 µM (inactive)
- GI50 [23]: 18.7 µM (inactive)
- GI50 [57]: 17.9 µM (inactive)
- GI50 [24]: 13.7 µM (inactive)
- GI50 [25]: 15 µM (inactive)
- GI50 [26]: 28.6 µM (inactive)
- GI50 [27]: 6.84 µM (inactive)
- GI50 [29]: 14.6 µM (inactive)
- GI50 [30]: 21.6 µM (inactive)
- GI50 [58]: 17.5 µM (inactive)
- GI50 [31]: 18.2 µM (inactive)
- GI50 [32]: 14.5 µM (inactive)
- GI50 [33]: 6 µM (inactive)
- GI50 [34]: 13 µM (inactive)
- GI50 [35]: 12.1 µM (inactive)
- GI50 [36]: 19.1 µM (inactive)
- GI50 [37]: 15.8 µM (inactive)
- GI50 [38]: 29.3 µM (inactive)
- GI50 [40]: 3.04 µM (inactive)
- GI50 [41]: 12.7 µM (inactive)
- GI50 [42]: 3.66 µM (inactive)
- GI50 [43]: 5.52 µM (inactive)
- GI50 [44]: 16.1 µM (inactive)
- GI50 [45]: 23.1 µM (inactive)
- GI50 [46]: 15.3 µM (inactive)
- GI50 [47]: 8.89 µM (inactive)
- GI50 [48]: 17.9 µM (inactive)
- GI50 [49]: 9.42 µM (inactive)
- GI50 [50]: 11 µM (inactive)
- GI50 [51]: 17.9 µM (inactive)
- GI50 [52]: 16.1 µM (inactive)
- GI50 [53]: 14.2 µM (inactive)
- GI50 [54]: 8.15 µM (inactive)
- GI50 [55]: 8.59 µM (inactive)
- GI50 [56]: 16.4 µM (inactive)
